As a reminder, the solubility is the dissolved amount per volume that the medium holds. A word on the LD50: it is the dose expected to kill half of the subjects tested. Higher therefore signals a less toxic substance.

Converted amounts (≈) assume the structure as drawn.

Data set [1] can be described thus: Water solubility. The data set is classed as physicochemical.
Data set [2] in a line: Antitumor activity for L1210 (life prolonging effect, mouse leukemia transplanted intraperitoneally). It counts as in vivo. To be noted: mouse, in vivo, ip; numerator of therapeutic index; i.p. total dose; read-out: Maximum tolerable dose. The procedure:
(§1) 5×10^5 cells of mouse leukemia L1210 were transplanted intraperitoneally to a group of six female CDF1 mice (7 weeks old, body weight 17-19 g). The test compound was administered intraperitoneally on day 1, 5 and 9 and its life prolonging effect was observed.
(§2) In a case of the administration of a test compound as an acid addition salt the test compound was dissolved in water. The total administration amount was 1.56 mg/kg-400 mg/kg. The antitumor activity was expressed by the value (T/C%) wherein T denotes the mean survival days in the drug administered group and C denotes those in the non administered group. In case of equal to or more than 125% the drug is considered to be effective.

Data set [3] has as its system mouse leukemia L1210. The description is as above. The data set is classed as in vivo. To be noted: for minimal effective dose: Mus musculus, L1210, ip, denominator of therapeutic index, i.p. total dose, read-out: Minimum effective dose; for 40-day survivors: at optimum dose, group of six female CDF1 mice; for Therapeutic Index (Maximum tolerable dose/Minimum effective dose): i.p., L1210, CDF1 mice. The procedure:
as §1, §2

The nature of data set [4]: Acute toxicity test by intraperitoneal administration. Particulars: mouse, in vivo, ip, ICR male mice, 1 week observation. The procedure: Acute toxicity test was conducted by intraperitoneal administration using a group of twenty ICR male mice (4 weeks old, body weight around 20 g).
LD50 value was calculated by the Richfield-Willcokson method from a lethal ratio observing the fate of mice during 1 week after administration of a test compound.

With `CC[C@@](O)(C(=O)NCCN(C)C)c1cc2n(c(=O)c1COC(=O)CCSC)Cc1c-2nc2cc(Br)ccc2c1C` [Compound C2], in data set [1], the solubility is greater than 67 mg/mL. For the same compound, the MTD in data set [2] came out at 25 mg/kg. Further, in data set [3], the minimal effective dose came to 3.13 mg/kg, the 40-day survivors is recorded as 0/6 and the “Therapeutic Index (Maximum tolerable dose/Minimum effective dose)” value is recorded as 8. In addition, the LD50 at 168 h in data set [4] turned out to be 241 mg/kg.
In turn, `CCc1c2c(nc3ccc(C)cc13)-c1cc([C@@](O)(CC)C(=O)NCCN(C)C)c(COC(=O)CCSC)c(=O)n1C2` [Compound C7] had a solubility in data set [1] of 21 mg/mL (≈ 36.2 mM). In data set [2], the MTD was found to be 100 mg/kg. In data set [3], the minimal effective dose is 3.13 mg/kg, the 40-day survivors is 5/6 and the “Therapeutic Index (Maximum tolerable dose/Minimum effective dose)” value is listed as 32. Also, the LD50 at 168 h in data set [4] was determined as 234 mg/kg.
`CCCC(=O)OCc1c([C@@](O)(CC)C(=O)NCCN(C)C)cc2n(c1=O)Cc1c-2nc2cc(F)c(OC)cc2c1CC` [Compound C21] registered a solubility in data set [1] greater than 63 mg/mL. For the same compound, the MTD in data set [2] was found to be 3.13 mg/kg. Further, in data set [3], the minimal effective dose was less than 1.56 mg/kg, the 40-day survivors is given as 0/6 and the “Therapeutic Index (Maximum tolerable dose/Minimum effective dose)” value is recorded as greater than 2. The compound further gave an LD50 at 168 h in data set [4] of 124 mg/kg.
`CCCC(=O)OCc1c([C@@](O)(CC)C(=O)NCCN(C)C)cc2n(c1=O)Cc1c-2nc2cc(F)c(F)cc2c1CC` [Compound C14] yielded a solubility in data set [1] greater than 60 mg/mL. For the same compound, the 40-day survivors in data set [3] is given as 1/6. The LD50 at 168 h in data set [4] worked out at 98.3 mg/kg.
Compound `CCCC(=O)OCc1c([C@@](O)(CC)C(=O)NCCN(C)C)cc2n(c1=O)Cc1c-2nc2cc(F)ccc2c1CC` [Compound C9] registered a solubility in data set [1] greater than 59 mg/mL. The MTD in data set [2] stood at 12.5 mg/kg. For the same compound, in data set [3], the minimal effective dose was 1.56 mg/kg, the 40-day survivors is reported as 2/6 and the “Therapeutic Index (Maximum tolerable dose/Minimum effective dose)” value amounted to 8. The LD50 at 168 h in data set [4] stood at 152 mg/kg.
In data set [1], `CCc1c2c(nc3ccc(Cl)cc13)-c1cc([C@@](O)(CC)C(=O)NCCN(C)C)c(COC(=O)CCSC)c(=O)n1C2` [Compound C5] showed a solubility of 21 mg/mL (≈ 34.9 mM). Also, the MTD in data set [2] was found to be 6.25 mg/kg. Further, in data set [3], the minimal effective dose was less than 1.56 mg/kg, the 40-day survivors is 3/6 and the “Therapeutic Index (Maximum tolerable dose/Minimum effective dose)” value is greater than 4. The LD50 at 168 h in data set [4] is 168 mg/kg.
In turn, `CCC(=O)OCc1c([C@@](O)(CC)C(=O)NCCN(C)C)cc2n(c1=O)Cc1c-2nc2ccc(O)cc2c1CC` [Compound C28] gave a solubility in data set [1] greater than 56 mg/mL. The MTD in data set [2] is 200 mg/kg. In data set [3], the minimal effective dose amounted to 12.5 mg/kg, the 40-day survivors was 0/6 and the “Therapeutic Index (Maximum tolerable dose/Minimum effective dose)” value was 16. For the same compound, the LD50 at 168 h in data set [4] amounted to 341 mg/kg.
The compound `CCC(=O)OCc1c([C@@](O)(CC)C(=O)NCCN(C)C)cc2n(c1=O)Cc1c-2nc2cc(F)c(C)cc2c1CC` [Compound C23] returned a solubility in data set [1] of 20 mg/mL (≈ 36.2 mM). In data set [2], the MTD turned out to be 12.5 mg/kg. Further, in data set [3], the minimal effective dose is less than 1.56 mg/kg, the 40-day survivors is reported as 0/6 and the “Therapeutic Index (Maximum tolerable dose/Minimum effective dose)” value is reported as greater than 8. The LD50 at 168 h in data set [4] came to 184 mg/kg.
In the case of `CCC(=O)OCc1c([C@@](O)(CC)C(=O)NCCN(C)C)cc2n(c1=O)Cc1c-2nc2cc(F)c(F)cc2c1CC` [Compound C13], the solubility in data set [1] was greater than 59 mg/mL. Besides, the 40-day survivors in data set [3] is 0/6. In data set [4], the LD50 at 168 h amounted to 67.6 mg/kg.
For `CCc1c2c(nc3cc(F)c(F)cc13)-c1cc([C@@](O)(CC)C(=O)NCCN(C)C)c(COC(=O)CCSC)c(=O)n1C2` [Compound C15], the solubility in data set [1] was greater than 64 mg/mL. Further, in data set [3], the 40-day survivors is recorded as 0/6. The LD50 at 168 h in data set [4] stood at 85.2 mg/kg.
For `CCc1c2c(nc3cc(F)c(OC)cc13)-c1cc([C@@](O)(CC)C(=O)NCCN(C)C)c(COC(=O)CCSC)c(=O)n1C2` [Compound C22] the same measures were greater than 65 mg/mL, 0/6 and 68.6 mg/kg.

The values above are taken from patent publication US5843954A, “Camptothecin derivatives, preparations thereof and antitumor agents” (priority 1994, dated 1998).
